Measured values taken from patent US10689367B2, “Triazole pyridyl compounds as agonists of the APJ receptor” (AMGEN INC., priority 2016, dated 2020).
pEC50: −log10 of the molar value.

Each molecule was assayed against human APJ receptor (Homo sapiens (Human), UniProt P35414) (assay: [35S]GTPγS binding assay on membranes from CHO cells stably expressing human APJ receptor). Details: membranes of CHO cells stably expressing human APJ receptor, read-out: Activity hAPJ SPA EC50 IP.
human APJ receptor, sequence (P35414 whole entry): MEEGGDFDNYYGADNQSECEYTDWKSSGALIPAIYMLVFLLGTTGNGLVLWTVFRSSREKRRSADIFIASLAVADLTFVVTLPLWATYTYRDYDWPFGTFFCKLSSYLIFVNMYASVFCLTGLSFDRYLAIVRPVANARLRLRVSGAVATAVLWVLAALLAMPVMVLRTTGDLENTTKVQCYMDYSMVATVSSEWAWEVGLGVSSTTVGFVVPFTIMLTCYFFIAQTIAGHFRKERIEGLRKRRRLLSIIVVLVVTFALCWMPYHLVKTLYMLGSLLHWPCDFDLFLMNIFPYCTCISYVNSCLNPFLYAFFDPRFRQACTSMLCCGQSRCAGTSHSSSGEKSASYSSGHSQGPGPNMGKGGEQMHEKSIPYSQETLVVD
Type: biochemical
Outline: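 Agonist EC50 values come from non-linear regression of mean data from several independent runs. Membranes of CHO cells stably expressing human APJ were incubated 90 min at room temperature with [35S]GTPγS in buffer with optimized GDP, MgCl2 and NaCl, then read on a microplate imager.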
For `COc1cccc(-c2nnc(NS(=O)(=O)[C@@H](C)[C@H](OC)c3ncc(Cl)cn3)n2C23CC(C2)C3)n1` [Example 263.0, (1R,2S)—N-(4-(Bicyclo[1.1.1]pentan-1-yl)-5-(6-methoxypyridin-2-yl)-4H-1,2,4-triazol-3-yl)-1-(5-chloropyrimidin-2-yl)-1-methoxypropane-2-sulfonamide], the pEC50 was 7.31.
Work on `COc1cccc(-c2nnc(NS(=O)(=O)[C@@H](C)[C@H](OC)c3ncc(Cl)cn3)n2Cc2ccno2)n1` [Example 266.0, (1R,2S)-1-(5-chloropyrimidin-2-yl)-N-(4-(isoxazol-5-ylmethyl)-5-(6-methoxypyridin-2-yl)-4H-1,2,4-triazol-3-yl)-1-methoxypropane-2-sulfonamide] yielded a pEC50 of 8.02.
In the case of `COc1cccc(-c2nnc(NS(=O)(=O)[C@@H](C)[C@H](OC)c3ncc(Cl)cn3)n2Cc2cc(C)on2)n1` [Example 271.0, (1R,2S)-1-(5-chloropyrimidin-2-yl)-1-methoxy-N-(5-(6-methoxypyridin-2-yl)-4-((5-methylisoxazol-3-yl)methyl)-4H-1,2,4-triazol-3-yl)propane-2-sulfonamide], the pEC50 was 8.27.
`COc1cccc(-c2nnc(NS(=O)(=O)[C@@H](C)[C@H](C)c3ncc(Cl)cn3)n2Cc2cc(C)on2)n1` [Example 272.0, (2S,3R)-3-(5-chloropyrimidin-2-yl)-N-(5-(6-methoxypyridin-2-yl)-4-((5-methylisoxazol-3-yl)methyl)-4H-1,2,4-triazol-3-yl)butane-2-sulfonamide] showed a pEC50 of 7.92.
`COc1cccc(-c2nnc(NS(=O)(=O)[C@@H](C)[C@H](OC)c3ncc(Cl)cn3)n2CCc2ccccn2)n1` [Example 283.0, (1R,2S)-1-(5-chloropyrimidin-2-yl)-1-methoxy-N-(5-(6-methoxypyridin-2-yl)-4-(2-(pyridin-2-yl)ethyl)-4H-1,2,4-triazol-3-yl)propane-2-sulfonamide] showed a pEC50 of 7.16.
Molecule `COc1cccc(-c2nnc(NS(=O)(=O)[C@@H](C)[C@H](OC)c3ncc(Cl)cn3)n2CCc2cccnc2)n1` [Example 284.0, (1R,2S)-1-(5-chloropyrimidin-2-yl)-1-methoxy-N-(5-(6-methoxypyridin-2-yl)-4-(2-(pyridin-3-yl)ethyl)-4H-1,2,4-triazol-3-yl)propane-2-sulfonamide] has a pEC50 of 6.92.
Molecule `COc1cccc(-c2nnc(NS(=O)(=O)[C@@H](C)[C@H](C)c3ncc(C)cn3)n2Cc2ccon2)n1` [Example 291.0, (2S,3R)-N-(4-(isoxazol-3-ylmethyl)-5-(6-methoxypyridin-2-yl)-4H-1,2,4-triazol-3-yl)-3-(5-methylpyrimidin-2-yl)butane-2-sulfonamide] has a pEC50 of 7.46.
With `CCc1cc(Cn2c(NS(=O)(=O)[C@@H](C)[C@H](OC)c3ncc(Cl)cn3)nnc2-c2cccc(OC)n2)on1` [Example 292.0, (1R,2S)-1-(5-Chloropyrimidin-2-yl)-N-(4-((3-ethylisoxazol-5-yl)methyl)-5-(6-methoxypyridin-2-yl)-4H-1,2,4-triazol-3-yl)-1-methoxypropane-2-sulfonamide] the pEC50 was 8.62.
`CCc1cc(Cn2c(NS(=O)(=O)[C@@H](C)[C@H](OC)c3ncc(Cl)cn3)nnc2-c2cncc(C)c2)on1` [Example 293.0, (1R,2S)-1-(5-chloropyrimidin-2-yl)-N-(4-((3-ethylisoxazol-5-yl)methyl)-5-(5-methylpyridin-3-yl)-4H-1,2,4-triazol-3-yl)-1-methoxypropane-2-sulfonamide] was tested, and the pEC50 was 6.70.
Work on `CCc1cc(Cn2c(NS(=O)(=O)[C@@H](C)[C@@H](OC(C)C)c3ncc(C)cn3)nnc2-c2cccc(OC)n2)on1` [Example 294.0, (1S,2S)-N-(4-((3-ethylisoxazol-5-yl)methyl)-5-(6-methoxypyridin-2-yl)-4H-1,2,4-triazol-3-yl)-1-isopropoxy-1-(5-methylpyrimidin-2-yl)propane-2-sulfonamide] yielded a pEC50 of 8.27.
`COc1cccc(-c2nnc(NS(=O)(=O)[C@@H](C)[C@H](OC)c3ncc(Cl)cn3)n2CC2CCOCC2)n1` [Example 302.0, (1R,2S)-1-(5-chloropyrimidin-2-yl)-1-methoxy-N-(5-(6-methoxypyridin-2-yl)-4-((tetrahydro-2H-pyran-4-yl)methyl)-4H-1,2,4-triazol-3-yl)propane-2-sulfonamide] was tested, and the pEC50 was 7.28.
“(1R,2S)-1-(5-Chloropyrimidin-2-yl)-1-methoxy-N-(4-((1R,2R)-2-methoxycyclobutyl)-5-(6-methoxypyridin-2-yl)-4H-1,2,4-triazol-3-yl)propane-2-sulfonamide and (1R,2S)-1-(5-chloropyrimidin-2-yl)-1-methoxy-N-(4-((1S,2S)-2-methoxycyclobutyl)-5-(6-methoxypyridin-2-yl)-4H-1,2,4-triazol-3-yl)propane-2-sulfonamide [Example 155.0]” was tested, and the pEC50 was 8.51.
With “(1R,2S)-1-(5-chloropyrimidin-2-yl)-1-methoxy-N-(5-(6-methoxypyridin-2-yl)-4-(((S)-oxetan-2-yl)methyl)-4H-1,2,4-triazol-3-yl)propane-2-sulfonamide or (1R,2S)-1-(5-chloropyrimidin-2-yl)-1-methoxy-N-(5-(6-methoxypyridin-2-yl)-4-(((R)-oxetan-2-yl)methyl)-4H-1,2,4-triazol-3-yl)propane-2-sulfonamide [Example 140.0]” the pEC50 was 7.38.
For “(1R,2S)-1-(5-chloropyrimidin-2-yl)-1-methoxy-N-(5-(6-methoxypyridin-2-yl)-4-(((S)-oxetan-2-yl)methyl)-4H-1,2,4-triazol-3-yl)propane-2-sulfonamide or (1R,2S)-1-(5-chloropyrimidin-2-yl)-1-methoxy-N-(5-(6-methoxypyridin-2-yl)-4-(((R)-oxetan-2-yl)methyl)-4H-1,2,4-triazol-3-yl)propane-2-sulfonamide [Example 141.0]”, the pEC50 was 7.80.

What follows are molecules tested on heart failure rats (assay: Cardiac function in heart failure rats in vivo with ACE inhibitor captopril, with or without APJ agonist). Details: captopril alone, acute settings.
Parameters: species or system rat
From the text: The interaction between […] (ACE2) and Apelin biology is complicated. To investigate the interaction between the Apelin-APJ and ACE signalling pathways, we examined the improvement in cardiac function with APJ small molecule agonists in the presence of ACE inhibitor captopril in heart failure rats in vivo. […] However, in the presence of an APJ agonist, there was a shift in potency to the left with marked improvement in contractility and ejection fraction without changes in heart rate. These findings provide a new reference for the understanding of the regulation of ACE2 for the renin angiotensin aldosterone system (RAAS), independent of AT1R signaling and offer new potential drug targets for the treatment of diseases such as hypertension and heart failure. This work clearly establishes that combination of an agonist of the APJ receptor with an ARB such as losartan and/or with an ACE inhibitor such as captopril which may play an important role in providing greater efficacy in treating heart failure patients, for example in improving contractility and ejection fraction without changing the heart rate.
`C[C@H](CS)C(=O)N1CCC[C@H]1C(=O)O` [Captopril, captopril] was tested, and the “improvement in contractility or ejection fraction” value was “does not show a marked improvement in contractility or ejection fraction”.
